We go through two compounds from patent publication US8822691B2, “Pesticidal carboxamides” (Bayer CropScience AG, priority 2009, dated 2014).

Assay type in all cases: in vivo
One experiment relates to Spodoptera litura. Description: Test against tobacco cutworm (Spodoptera litura) larvae, leaf dip. Conditions: foliar, 168 h; active compound concentration of 100 ppm; third instar larvae on sweet potato leaves; after 7 days; read-out: insecticidal activity.
The subject of a further experiment is Tetranychus urticae. Briefly: Test against two-spotted spider mite (Tetranychus urticae), spray. The following applies: Tetranychus urticae, 168 h; active compound concentration of 500 ppm; adult mites on kidney bean; after 7 days; read-out: acaricidal activity.
The subject of a further experiment is Aulacophora femoralis. Description: Test against cucurbit leaf beetle (Aulacophora femoralis), leaf dip. The following applies: Aulacophora, foliar, 168 h; active compound concentration of 500 ppm; second instar larvae on cucumber leaves; after 7 days; read-out: insecticidal activity. Summed up: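 Cucumber leaves dipped in compound solution (DMF/polyoxyethylene alkyl phenyl ether formulation diluted in water), air-dried and given five second-instar larvae on sterilized soil at 25 °C. Dead larvae counted after 7 days and expressed as % insecticidal activity.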

The subject of a further experiment is Lucilia cuprina. Description: Lucilia cuprina (48 h) larval test. Conditions: Lucilia cuprina, 48 h, read-out: activity (larval mortality). The method, then: Species: Lucilia cuprina 1st instar larvae (age 24 hrs)
(§1) Solvent: dimethyl sulfoxide
10 mg active compound are dissolve in 0.5 ml dimethyl sulfoxide. Serial dilutions are made to obtain the desired rates. Approximately 20 Lucilia cuprina 1st instar larvae are transferred into a test tube containing 1 cm^3 of minced horse meat and 0.5 ml aqueous dilution of test compound. After 48 hrs percentage of larval mortality are recorded. 100% efficacy all larvae are killed, % efficacy normally developed larvae after 48 hrs.

The subject of a further experiment is Ctenocephalides felis. Briefly: Ctenocephalides felis-test (CTECFE). The following applies: Ctenocephalides felis, in Bos taurus, 48 h, read-out: activity (mortality), application rate of 100 ppm in cattle blood; adult unfed fleas; after 2 days. How it is done:
as §1
To produce a suitable preparation of active compound, 10 mg of active compound are dissolved in 0.5 ml solvent, and the concentrate is diluted with cattle blood to the desired concentration. Approximately 20 adult unfed (Ctenocepahlides felis) are placed in flea chambers. The blood chamber, sealed with parafilm on the bottom, are filled with cattle blood supplied with compound solution and placed on top of the flea chamber, so that the fleas are able to suck the blood. The blood chamber is heated to 37° C. whereas the flea chamber is kept at room temperature. After 2 days mortality in % is determined. 100% means that all the fleas have been killed; 0% means that none of the fleas have been killed.

Experiment [1] has as its system Boophilus microplus. Briefly: Boophilus microplus-test (injection). The following applies: Rhipicephalus microplus, 168 h, read-out: activity (mortality in %; 100% means that all eggs are infertile). How it is done: as §1
To produce a suitable preparation of active compound, 10 mg of active compound are dissolved in 0.5 ml solvent, and the concentrate is diluted with solvent to the desired concentration. Five adult engorged female ticks (Boophilus microplus) are injected with 1 μl compound solution into the abdomen. Ticks are transferred into replica plates and incubated in a climate chamber for a period of time. Egg deposition of fertile eggs is monitored.
After 7 days mortality in % is determined. 100% means that all eggs are infertile; 0% means that all eggs are fertile.

Experiment [2] has as its system Boophilus microplus. Description: Boophilus microplus (dip). Conditions: Rhipicephalus microplus, 168 h, read-out: activity (mortality). The method, then:
Solvent: Dimethylsulfoxid
To produce a suitable preparation of active compound, 10 mg of active compound are dissolved in 0.5 ml solvent, and the concentrate is diluted with water to the desired concentration. Eight to ten adult engorged female Boophilus microplus ticks are placed in perforated plastic beakers and immersed in aqueous compound solution for one minute. Ticks are transferred to a filter paper in a plastic tray. Egg deposition of fertile eggs is monitored after. After 7 days mortality in % is determined. 100% means that all the ticks have been killed; 0% means that none of the ticks have been killed.

The test system of the next experiment is Musca domestica. Description: Musca domestica-test. Conditions: Musca domestica, 48 h, read-out: activity (mortality). The method, then:
as §1
To produce a suitable preparation of active compound, 10 mg of active compound are dissolved in 0.5 ml solvent, and the concentrate is diluted with water to the desired concentration. Prior to the assay, a piece of kitchen sponge is soaked with a mixture of sugar and compound solution and placed into a container. 10 adults (Musca domestica) are placed into the container and closed with a perforated lid. After 2 days mortality in % is determined. 100% means that all the flies have been killed; 0% means that none of the flies have been killed.

Take `N#Cc1ccc2cc(C(=O)Nc3c(I)cc(C(F)(C(F)(F)F)C(F)(F)C(F)(F)F)cc3OC(F)F)ccc2n1` (stereo not shown) [Compound No. 2-176, 2-cyano-N-[2-(difluoromethoxy)-6-iodo-4-(1,1,1,2,3,3,4,4,4-nonafluorobutan-2-yl)phenyl]quinoline-6-carboxamide]: in the experiment on Spodoptera litura, the pest or weed control at 100 ppm stood at 100%. Further, the pest or weed control at 500 ppm in the experiment on Tetranychus urticae and in the experiment with Aulacophora femoralis was 100% throughout. Besides, the mortality – broadly, the percentage killed – at 100 ppm came to 100% in the experiment on Lucilia cuprina, 90% in the experiment on Ctenocephalides felis, 100% with Boophilus microplus [2] and 100% with Musca domestica. The mortality at 0.02 mg in the experiment with Boophilus microplus [1] came to 100%.

For `N#Cc1ccc2cc(C(=O)Nc3c(Br)cc(C(F)(C(F)(F)F)C(F)(F)Br)cc3OC(F)F)ccc2n1` (stereo not shown) [Compound No. 2-203, N-[2-bromo-4-(1-bromo-1,1,2,3,3,3-hexafluoropropan-2-yl)-6-(difluoromethoxy)phenyl]-2-cyanoquinoline-6-carboxamide], in the experiment on Spodoptera litura, the pest or weed control at 100 ppm stood at 100%. Further, the pest or weed control at 500 ppm with Tetranychus urticae and in the experiment on Aulacophora femoralis was 100% each time. The mortality at 100 ppm with Lucilia cuprina, with Ctenocephalides felis, in the experiment with Boophilus microplus [2] and in the experiment on Musca domestica was 100% in each case. In addition, the mortality at 0.02 mg with Boophilus microplus [1] turned out to be 100%.
